The values that follow are results of earlier work, collected in patent US20220305008A1, “TREATMENT OF CANCER HAVING GNAQ OR GNA11 GENETIC MUTATIONS WITH PROTEIN KINASE C INHIBITORS” (IDEAYA BIOSCIENCES, INC., priority 2019, published 2022).

In data set [1] the test system is metastatic uveal melanoma (MUM). To be noted: patients with MUM (metastatic uveal melanoma).
The conditions of data set [2]: in vivo, po.

With `CC1(N)CCN(c2cccnc2NC(=O)c2nc(-c3ncccc3C(F)(F)F)cnc2N)CC1` [IDE196], in data set [1], the anti-tumor activity entry was “preliminary anti-tumor activity”. The “safety and tolerability of dose” value in data set [2] was “safe and tolerable”.
